Laboratory results reported in patent US8772319B2 (priority 2004, dated 2014).
Read-outs that look alike come from different tables or passages of the source.

What was measured:
[1] = biological target: T1, human dopamine transporter (hDAT) (Homo sapiens, UniProt Q01959); assay: biochemical; type: binding
[2] = biological target: T2, human norepinephrine transporter (hNET) (Homo sapiens, UniProt P23975); assay: biochemical; details: [125I]RTI-55, read-out: NET binding affinity Ki
[3] = biological target: T3, human serotonin transporter (hSERT) (Homo sapiens, UniProt P31645); assay: biochemical; details: [125I]RTI-55, read-out: SERT binding affinity Ki
[4] = biological target: T3, human serotonin transporter (hSERT); assay: cell-based
[5] = biological target: T2, human norepinephrine transporter (hNET); assay: cell-based; details: read-out: Reuptake Inhibition [3H]NE IC50
[6] = biological target: T1, human dopamine transporter (hDAT); assay: cell-based
[7] = Reuptake Inhibition [3H]5-HT IC50, Table 1-1
[8] = Reuptake Inhibition [3H]DA IC50, Table 1-1
[9] = Reuptake Inhibition [3H]5-HT IC50, Table 2-1
[10] = Reuptake Inhibition [3H]DA IC50, Table 2-1

T1 sequence (Q01959 whole entry): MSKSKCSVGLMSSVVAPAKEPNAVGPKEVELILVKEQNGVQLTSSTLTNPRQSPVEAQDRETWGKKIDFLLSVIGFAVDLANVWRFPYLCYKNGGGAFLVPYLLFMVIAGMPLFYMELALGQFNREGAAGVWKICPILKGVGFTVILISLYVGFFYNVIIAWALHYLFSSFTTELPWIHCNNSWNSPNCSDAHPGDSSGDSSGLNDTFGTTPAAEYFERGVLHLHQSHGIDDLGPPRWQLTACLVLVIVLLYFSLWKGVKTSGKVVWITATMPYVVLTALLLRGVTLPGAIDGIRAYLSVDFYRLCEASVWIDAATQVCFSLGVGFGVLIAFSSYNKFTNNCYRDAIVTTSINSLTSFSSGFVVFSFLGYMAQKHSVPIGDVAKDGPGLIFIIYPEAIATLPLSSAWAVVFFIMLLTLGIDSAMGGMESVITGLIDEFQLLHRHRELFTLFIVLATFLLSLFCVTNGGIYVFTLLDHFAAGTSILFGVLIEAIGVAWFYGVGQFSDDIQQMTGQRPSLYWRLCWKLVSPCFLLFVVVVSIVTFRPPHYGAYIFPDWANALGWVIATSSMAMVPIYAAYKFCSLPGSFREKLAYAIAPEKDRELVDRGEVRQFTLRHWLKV
T2 sequence (P23975 whole entry): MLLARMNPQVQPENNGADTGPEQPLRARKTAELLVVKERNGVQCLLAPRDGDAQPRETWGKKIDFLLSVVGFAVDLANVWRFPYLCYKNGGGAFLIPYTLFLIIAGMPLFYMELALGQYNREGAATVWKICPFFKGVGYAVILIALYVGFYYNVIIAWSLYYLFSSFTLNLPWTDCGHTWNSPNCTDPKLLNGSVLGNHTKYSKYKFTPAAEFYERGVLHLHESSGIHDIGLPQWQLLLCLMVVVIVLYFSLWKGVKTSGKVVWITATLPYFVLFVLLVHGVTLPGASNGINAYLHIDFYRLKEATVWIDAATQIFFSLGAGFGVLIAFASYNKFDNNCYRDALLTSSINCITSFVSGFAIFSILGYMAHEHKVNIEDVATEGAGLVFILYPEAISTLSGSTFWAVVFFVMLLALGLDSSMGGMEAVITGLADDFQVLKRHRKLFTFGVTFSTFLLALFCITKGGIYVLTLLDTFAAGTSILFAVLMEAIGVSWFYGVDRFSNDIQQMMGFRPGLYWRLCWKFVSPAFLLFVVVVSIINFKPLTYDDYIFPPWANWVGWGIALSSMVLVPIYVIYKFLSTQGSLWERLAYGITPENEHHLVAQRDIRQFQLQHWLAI
T3 sequence (P31645 whole entry): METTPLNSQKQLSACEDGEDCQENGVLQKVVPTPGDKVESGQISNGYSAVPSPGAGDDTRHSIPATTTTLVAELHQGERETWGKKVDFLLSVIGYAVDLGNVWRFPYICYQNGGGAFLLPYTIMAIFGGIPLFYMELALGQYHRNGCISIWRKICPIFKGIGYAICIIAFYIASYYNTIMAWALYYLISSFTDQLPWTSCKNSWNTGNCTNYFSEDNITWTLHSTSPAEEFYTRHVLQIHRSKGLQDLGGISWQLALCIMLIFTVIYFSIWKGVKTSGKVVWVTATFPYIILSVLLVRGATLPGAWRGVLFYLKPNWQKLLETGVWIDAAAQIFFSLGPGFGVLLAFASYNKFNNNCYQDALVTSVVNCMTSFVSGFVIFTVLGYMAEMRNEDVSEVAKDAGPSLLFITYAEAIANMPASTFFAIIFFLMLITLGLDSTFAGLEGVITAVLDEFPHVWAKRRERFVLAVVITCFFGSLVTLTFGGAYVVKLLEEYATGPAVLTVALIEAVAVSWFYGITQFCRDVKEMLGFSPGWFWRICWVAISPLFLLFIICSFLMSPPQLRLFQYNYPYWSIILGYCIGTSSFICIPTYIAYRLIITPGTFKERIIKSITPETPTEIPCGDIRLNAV

Compound	Ki [1] [nM]	Binding Ratios NET/DAT ([1]; Table 1)	Binding Ratios SERT/DAT ([1]; Table 1)	Ki ([2]; Table 1) [nM]	Ki ([3]; Table 1) [µM]	IC50 [4, 7] [nM]	IC50 ([5]; Table 1-1) [nM]	IC50 [6, 8] [nM]	Discrimination Ratios [3H]DA reuptake/DAT binding ([6]; Table 1-1)	Binding Ratios NET/DAT ([1]; Table 2)	Binding Ratios SERT/DAT ([1]; Table 2)	Ki ([2]; Table 2) [nM]	Ki ([3]; Table 2) [µM]	IC50 [4, 9] [nM]	IC50 [6, 10] [nM]	Discrimination Ratios [3H]DA reuptake/DAT binding ([6]; Table 2-1)	other results
Fc1ccc(C(OCCCCN2CCNCC2)c2ccc(F)cc2)cc1 [Compound 3]																	Binding Ratios NET/DAT ([1]; Table 5): 5.7; Binding Ratios SERT/DAT ([1]; Table 5): 3.2; Ki ([1]; Table 5, [125I]RTI-55, oxalate salts, read-out: DAT binding affinity Ki): 600 ± 190 nM; Ki ([2]; Table 5, oxalate salts): 3400 ± 1500 nM; Ki ([3]; Table 5, oxalate salts): 1.9 ± 0.33 µM; IC50 ([4]; Table 6, read-out: Reuptake Inhibition [3H]5-HT IC50): 2170 ± 78 nM; IC50 ([5]; Table 6): 850 ± 270 nM; Discrimination Ratios (DR) [3H]DA reuptake/DAT binding ([6]; Table 6): 1.7; IC50 ([6]; Table 6, read-out: Reuptake Inhibition [3H]DA IC50): 1000 ± 190 nM
O=C(Nc1ccc(F)cc1)N1CCN(CCCCOC(c2ccc(F)cc2)c2ccc(F)cc2)CC1 [Compound 4]	60 ± 8	2.2	0.2	133 ± 18	0.014 ± 0.006	68 ± 28	45 ± 17	9 ± 3	0.2								
O=C(NCc1ccc(F)cc1)N1CCN(CCCCOC(c2ccc(F)cc2)c2ccc(F)cc2)CC1 [Compound 5]	437 ± 12	1.6	0.2	706 ± 153	0.275 ± 0.021	6 ± 1	51 ± 4	53 ± 22	0.1								
Fc1ccc(C(OCCCCN2CCN(C(=S)Nc3cccnc3)CC2)c2ccc(F)cc2)cc1 [Compound 6]	170 ± 24	14.4	6.4	2450 ± 367	1.08 ± 0.3	308 ± 102	359 ± 108	97 ± 19	0.6								
O=C(NS(=O)(=O)c1ccc(F)cc1)N1CCN(CCCCOC(c2ccc(F)cc2)c2ccc(F)cc2)CC1 [Compound 7]		8.1	9.5	2690 ± 258	3.16 ± 0.666		836 ± 93		0.6								Ki ([1]; Table 1, [125I]RTI-55, read-out: DAT binding affinity Ki): 334 ± 25 nM; IC50 ([4]; Table 1-1, read-out: Reuptake Inhibition [3H]5-HT IC50): 1620 ± 769 nM; IC50 ([6]; Table 1-1, read-out: Reuptake Inhibition [3H]DA IC50): 206 ± 64 nM
O=C(Nc1ccc(-c2ccccc2)cc1)N1CCN(CCCCOC(c2ccc(F)cc2)c2ccc(F)cc2)CC1 [Compound 8]	67	104	>149	6940	> 10	1020 ± 320	56.3 ± 9.4	419 ± 34	6.3								Ki ([3]; Table 1, bound given in μM): > 10 µM
NCC1CCCN(CCCCOC(c2ccc(F)cc2)c2ccc(F)cc2)C1 (stereo not drawn) [Compound 10]	113									4.8	7.8	537 ± 112	0.883	571 ± 127	31	0.3	
O=C(NCC1CCCN(CCCCOC(c2ccc(F)cc2)c2ccc(F)cc2)C1)c1cccc(C(F)(F)F)c1 (stereo not drawn) [Compound 11]	403 ± 81									0.1	1.2	49 ± 21	0.496 ± 0.177	511	46	0.1	IC50 ([5]; Table 2-1): 53 ± 3 nM
O=C(NCC1CCCN(CCCCOC(c2ccc(F)cc2)c2ccc(F)cc2)C1)Nc1ccc(F)cc1 (stereo not drawn) [Compound 12]	93									1.1	2.1	99	0.198	123 ± 16	92 ± 24	1.0	IC50 ([5]; Table 2-1): 20 nM
O=C(NCc1ccc(F)cc1)NCC1CCCN(CCCCOC(c2ccc(F)cc2)c2ccc(F)cc2)C1 (stereo not drawn) [Compound 13]	203 ± 68									0.3	2.7	60	0.545 ± 0.194	177 ± 18	85 ± 39	0.4	IC50 ([5]; Table 2-1): 136 ± 32 nM
O=C(Nc1ccc(F)cc1)NC1CCN(CCCCOC(c2ccc(F)cc2)c2ccc(F)cc2)CC1 [Compound 17]	32 ± 1.4																Binding Ratios NET/DAT ([1]; Table 3): 13.4; Binding Ratios SERT/DAT ([1]; Table 3): 8.7; Ki ([2]; Table 3): 430 ± 100 nM; Ki ([3]; Table 3): 0.279 ± 0.057 µM; IC50 ([4]; Reuptake Inhibition [3H]5-HT IC50, Table 3-1): 7140 nM; IC50 ([5]; Table 3-1): 2530 nM; IC50 ([6]; Reuptake Inhibition [3H]DA IC50, Table 3-1): 7000 ± 1790 nM; Discrimination Ratios [3H]DA reuptake/DAT binding ([6]; Table 3-1): 219
